For data set [1], the system named is carbonyl reductase. Put plainly: Substrate specificity: reductase activity with various ketones and aldehydes in the presence of a coenzyme. It is filed as biochemical, Kluyveromyces aestuarii. Set-up: concentration or dose not given beside the values. The settings on record: reduction reaction, ethyl 4-chloroacetoacetate with NADH taken as 100. The method, then: (§1) A decrease of absorbance at 340 nm, following a decrease of NADH, is measured during the reaction at 30 in a reaction mixture containing 50 mM potassium phosphate buffer (pH 6.5), 0.2 mM NADH, 20 mM ethyl 4-chloroacetoacetate, and the enzyme. One unit of the enzyme of the present invention is defined as the amount required to decrease […] of NADH in 1 min. A protein is quantitated by the dye-binding method using a Protein Assay Kit (BioRad).
(§2) The reductase activity of the enzyme obtained in Example 1 was measured by reacting the enzyme with various ketones and aldehydes in the presence of a coenzyme. The results are shown in Table 2 as the activity relative to that of ethyl 4-chloroacetoacetate in the presence of NADH that is taken as 100.

Data set [2] deals with carbonyl reductase. Put plainly: Substrate specificity: NAD+-dependent dehydrogenase (oxidation) activity. Type of data set: biochemical, Kluyveromyces aestuarii. Set-up: Relative activity (%): concentration or dose not given beside the values. The settings on record: for Relative activity (%): oxidation reaction, coenzyme NAD+, reduction of ethyl 4-chloroacetoacetate with NADH taken as 100; for NAD+-dependent dehydrogenase activity (in words): substrate with NAD+. Here is the method:
The enzyme contacts the substrate, 4-halo-3-hydroxybutyrate ester, in the presence of NAD^+, and the change (per unit time) of the absorbance at 340 nm, which is accompanied with an increase or decrease of NADH, is measured.
as §2

Data set [3] has as its system carbonyl reductase. Put plainly: Influence of inhibitors on the carbonyl reductase (residual reductase activity). Type of data set: biochemical, Kluyveromyces aestuarii. Conditions: for Residual activity: 30, 10 min, activity without any reagent taken as 100. Here is the method: as §1
The enzyme obtained in Example 1 was incubated at 30 for 10 min in the presence of various reagents, and its reductase activity to […] was measured. The results are shown in Table 3 as the residual activity to that obtained without any reagent that is taken as 100.

Data set [4] in a line: 4-chloroacetoacetate ester-reducing activity of the purified enzyme. Type of data set: biochemical, Kluyveromyces aestuarii. Conditions: 20 mM ethyl 4-chloroacetoacetate, 0.2 mM NADH, pH 6.5; after Superdex 200. The method, then: as §1
Kluyveromyces aestuarii IFO 10597 was cultured in 20 L of YM medium containing 24 g/L glucose, 3 g/L yeast extract, 3 g/L malt extract, and 5 g/L peptone (pH 6.0). The cultured cells were harvested by centrifugation. […]
The activity of the carbonyl reductase was detected in three fractions, a passed-through fraction and two gradient-eluted fractions. […]
The concentrated enzyme solution was adjusted to 20% saturation with ammonium sulfate and was applied to a butyl-Toyopearl 650M column (1.6 cm×5 cm) equilibrated with the standard buffer containing 20% saturation ammonium sulfate. […] The peak of the activity of the carbonyl reductase was detected in two eluted fractions. […]
The active fractions obtained by gel filtration were concentrated and analyzed by polyacrylamide gel electrophoresis (PAGE). The enzyme was detected as a substantially single band (FIG. 1). […]

Data set [5] is classed as physicochemical, Kluyveromyces aestuarii. The method, then: The enzyme obtained in Example 1 was incubated at pH 8.0 for 10 min at 30, 37, 45, 50, and 55; the reductase activity of each incubation mixture to ethyl 4-chloroacetoacetate was then measured. The results are shown in FIG. 5 as the residual activity to the activity of the untreated enzyme that is taken as 100.

Bounds are passed on as bounds.

Consider `CC(=O)C(C)=O` [2,3-butandione], for which, in the data set with carbonyl reductase [1] (coenzyme NADH), the “Relative activity (%)” value is 70.6%.
On to `CCC(=O)C(C)=O` [2,3-pentandione], for which the “Relative activity (%)” value in the data set on carbonyl reductase [1] (coenzyme NADH) is reported as 8.2%.
As for `CC(=O)CC(C)=O` [2,4-pentandione], the “Relative activity (%)” value with carbonyl reductase [1] (coenzyme NADH) was found to be 0%.
Same read-out and setting: as for `CC(=O)c1ccccc1` [Acetophenone], the figure is 0%.
Take `CC(C)O` [Isopropanol]: in the data set on carbonyl reductase [2], the “Relative activity (%)” value was 0% and the “NAD+-dependent dehydrogenase activity (in words)” value was “does not substantially dehydrogenate”.
As to `CC(=O)C=O` [Methylglyoxal], in the data set with carbonyl reductase [1] (coenzyme NADH), the “Relative activity (%)” value came out at 0%.
As for `O=S(=O)(F)Cc1ccccc1` [Phenylmethanesulfonyl fluoride], in the data set on carbonyl reductase [3] (inhibitor 1 mM), the Residual activity was determined as 99.0.
As for `CCC=O` [Propionaldehyde], in the data set on carbonyl reductase [1] (coenzyme NADH), the “Relative activity (%)” value stood at 2.5%.
In the case of `CCC1(CC)C(=O)NC(=O)NC1=O` [barbital], in the data set with carbonyl reductase [3], the “Inhibition of the carbonyl reductase (in words)” value is “not and not inhibited”. Further, in the data set with carbonyl reductase [3] (inhibitor 1 mM), the Residual activity came out at 101.
On to `O=S(=O)([O-])[O-].[Cu+2]` [copper sulfate], for which, in the data set with carbonyl reductase [3], the “Inhibition of the carbonyl reductase (in words)” value is recorded as “significantly inhibited”. In the data set with carbonyl reductase [3] (inhibitor 1 mM), the Residual activity is recorded as 19.0.
As to `CCOC(=O)CC(=O)CCl` [ethyl 4-chloroacetoacetate], the “Relative activity (%)” value worked out at 100% in the data set on carbonyl reductase [1] (coenzyme NADH) and 6.4% in the data set on carbonyl reductase [1] (coenzyme NADPH).
`CCOC(=O)C[C@@H](C)O` [ethyl (R)-3-hydroxybutyrate]: the “Relative activity (%)” value in the data set on carbonyl reductase [2] is 1.9%.
As for `CCOC(=O)C[C@@H](O)CCl` [ethyl (R)-4-chloro-3-hydroxybutyrate], in the data set on carbonyl reductase [2], the “Relative activity (%)” value turned out to be 0% and the “NAD+-dependent dehydrogenase activity (in words)” value is “did not show any”.
For `CCOC(=O)C[C@H](C)O` [ethyl (S)-3-hydroxybutyrate], the “Relative activity (%)” value in the data set on carbonyl reductase [2] was determined as 0%.
`CCOC(=O)C[C@H](O)CCl` [ethyl (S)-4-chloro-3-hydroxybutyrate]: in the data set with carbonyl reductase [2], the “Relative activity (%)” value came out at 0% and the “NAD+-dependent dehydrogenase activity (in words)” value was “did not show any”.
In the case of `CCOC(=O)CC(C)=O` [ethyl acetoacetate], the “Relative activity (%)” value in the data set on carbonyl reductase [1] (coenzyme NADH) is reported as 0%.
As to `NC(=O)CI` [iodoacetamide], the “Inhibition of the carbonyl reductase (in words)” value in the data set with carbonyl reductase [3] is reported as “weakly inhibited”. The same molecule came in with a Residual activity with carbonyl reductase [3] (inhibitor 1 mM) of 84.0.
`COC(=O)CC(=O)CCl` [methyl 4-chloroacetoacetate]: in the data set on carbonyl reductase [1] (coenzyme NADH), the “Relative activity (%)” value was found to be 13.1%.
As to `COC(=O)CC(C)=O` [methyl acetoacetate], the “Relative activity (%)” value with carbonyl reductase [1] (coenzyme NADH) was 0%.
As to `O=C(O)c1cc[c]([Hg][Cl])cc1` [p-chloromercuribenzoic acid], the “Inhibition of the carbonyl reductase (in words)” value in the data set on carbonyl reductase [3] is given as “significantly inhibited”. In the data set with carbonyl reductase [3] (inhibitor 0.05 mM), this molecule gave a Residual activity of 0.
With `O=Cc1cccnc1` [pyridin-3-aldehyde], in the data set on carbonyl reductase [1] (coenzyme NADH), the “Relative activity (%)” value came to 0%.
Regarding `O=c1c(O)c(-c2ccc(O)c(O)c2)oc2cc(O)cc(O)c12` [quercetin], the “Inhibition of the carbonyl reductase (in words)” value in the data set on carbonyl reductase [3] is “not and not inhibited”. For the same molecule, in the data set with carbonyl reductase [3] (inhibitor 0.1 mM), the Residual activity came out at 94.0.

B1: carbonyl reductase: NADH-dependent carbonyl reductase purified from Kluyveromyces aestuarii IFO 10597; amino acid sequence SEQ ID NO: 2 (protein, listed as Kluyveromyces aestuarii)
chain: MTFQHFLRGGLEDKTVPQEPPKEQYPDGVNYLSLFSQKGKLTVITGGAGAIGGALCEGFASCGSDVVILDYKYSPELSSVLESRYGVRSKSYQVDITSSEDVKLVVAKILEDFPDRDINTFVANAGIAWTNGSILNENATPDVWKRVMDVNVQGTYHCAKYVAEVFKQQGHGNLILTASMSSYISNVPNYQTCYNASKAAVRHMAKGFAVEFAHLTNPAGKIRCNSVSPGYTDTALSAFVPVEQRAQWWGLTPMGREALPQELVGAYLYLASDAASFTNGCDIQVDGGYTCV
As for B1, the “Specific activity of the purified enzyme” value in data set [4] is on record as “about 28.6 U/mg”. Further, the “Thermostability (relatively stable up to)” value in data set [5] is given as “up to 40”. For the same molecule, the “Residual activity after heat incubation” value in data set [5] (pH 8.0, 10 min, up to 37, untreated enzyme taken as 100) is at least 75%.

The values are drawn from patent US6969600B2, “Carbonyl reductase, method for producing said enzyme, DNA encoding said enzyme, and method for producing alcohol using said enzyme” (Daicel Chemical Industries, Ltd., priority 1998, dated 2005).
